Reference: patent US20040102501A1, “Stable, low free formaldehyde, synergistic antimicrobial compositions of aldehyde donors and dehydroacetic acid” (priority 2002, published 2004)

Columns and labels:
[1] = test system: Mixed bacteria: equal mixture of Staphylococcus aureus (ATCC No. 6538), Pseudomonas aeruginosa (ATCC No. 9027), and Escherichia coli (ATCC No. 8739); test: Synergy at Day 14 (Kull method, QA/Qa+QB/Qb) from mixed bacteria challenge test; assay type: cell-based; settings: DHA alone
Protocol: A synergistic effect is a response to a combination of two or more components that produce an effect greater than the sum of their individual effects. […] E. Kull et al., “Mixtures of Quaternary Ammonium Compounds and Long-chain Fatty Acids as Antifungal Agents”, Applied Microbiology, 9:538-541 (1961). The synergism value is determined by the formula: […]
where QA is the quantity of Compound A in mixture, producing an endpoint; Qa is the quantity of Compound a acting alone, producing an endpoint; QB is the concentration of Compound B in the mixture, producing an endpoint. Qb is the concentration of Compound b acting alone, producing an endpoint.
When the value of (QA/Qa+QB/Qb) is less than one, the mixture is synergistic. Values for (QA/Qa+QB/Qb) of 1 and greater than 1, represent an additive effect and an antagonistic effect, respectively. According to this method of measuring synergism, the quantity of each component in the various mixtures is compared with the quantity of pure component that is required to reach the same endpoint or to produce the same microbiological effect as the mixture. […]

[2] = test system: Mixed bacteria: equal mixture of Staphylococcus aureus (ATCC No. 6538), Pseudomonas aeruginosa (ATCC No. 9027), and Escherichia coli (ATCC No. 8739); test: Preservative challenge test against mixed bacteria in anionic protein shampoo; assay type: cell-based
Protocol: Mixed bacteria challenge tests were performed by adding approximately 1-5×10^6 organisms per gram of formulation, the organisms comprising an equally divided mixture of Staphylococcus aureus (ATCC No. 6538), Pseudomonas aeruginosa (ATCC No. 9027), and Escherichia coli (ATCC No. 8739) incubated at 36° C. on nutrient agar […] 24 hours prior to testing. The test samples were incubated at 23° C. (room temperature) for the number of days indicated, after which an aliquot of the sample was taken and diluted stepwise to a 10^6 fold reduction in concentration. The diluted samples were plated out on tryptic soy agar and incubated for 48 hours at 36° C. After incubation, readings of the total number of colony forming units per gram (cfu/g) were made on the samples. Table 3 illustrates the levels at which the individual components Glydant®2000 and DHA are effective and ineffective against bacteria.

[3] = 0.150% preservative as supplied

SMILES: CC(=O)C1C(=O)C=C(C)OC1=O (stereo not shown) [DHA, dehydroacetic acid]
- Qb (concentration of Compound b acting alone, producing an endpoint) [1]: 0.2%
- Day 0 cfu/g. [2, 3]: 3.0 × 10^6 cfu/g
- Day 7 cfu/g. [2, 3]: 8.0 × 10^3 cfu/g
- Day 14 cfu/g. [2, 3]: 1.0 × 10^6 cfu/g
- Day 0 cfu/g. ([2]; 0.20% preservative as supplied): 3.0 × 10^6 cfu/g
- Day 7 cfu/g. ([2]; 0.20% preservative as supplied): 1.0 × 10^3 cfu/g
- Day 14 cfu/g. ([2]; 0.20% preservative as supplied): <10 cfu/g
